# Reference: paper PMC9576799, “Discovery of small molecule inhibitors that effectively disrupt IQGAP1-Cdc42 interaction in breast cancer cells” (Scientific Reports, 2022)
# Like-named read-outs stand apart in the source and are kept apart here.
# Assays:
# [1] = system: MDA-MB-231 cells; test: Scratch wound migration assay; format: cell-based, human; conditions: for cell migration maximum efficiency / EC50: scratch wound, 72 h; for EC50: read-out: cell migration EC50
# Method: MDA-MB-231 cells were grown to confluence and plated into a 96-well clear plate (Sartorius 4379) at 30,000 cells/100 µL/well in DMEM supplemented with 5% FBS. Cells were incubated at 37 °C with 5% CO2 overnight. Even wounds were created using a 96-pin wound device (Sartorius 4493) following the manufacturer’s protocol. Medium was then aspirated, and the cells were washed once with PBS pH 7.4 before adding 100 µL/well of fresh growth medium. Then 100 µL/well of growth medium containing compounds at an 8-point 1:2 titration dispensed into the cell plate resulting a final highest concentration of 50 µM for each compound. 0.5% DMSO was used as control. All samples were plated in triplicate. The plate was placed into an Incucyte SX5 Live-cell imaging system and phase images were taken in 2-h intervals for 72 h using the scratch wound setting. Medium was aspirated and replaced with a fresh medium containing compounds or DMSO after 24 h. The images were analyzed, and the wound density curves generated by the Incucyte software 2020A using the scratch wound analysis option.
# [2] = target: T1, GST-Cdc42-Q61L-His (Homo sapiens, UniProt P60953, Q61L); test: HTRF counter-screen with double-tagged Cdc42; conditions: 100 nM GST-Cdc42-Q61L-His
# T1 construct: His (hexa-histidine in the Results); made in house; host or cells: Escherichia coli BL-21
# T1 sequence (P60953 2-191 isoform P60953-1 Q61L): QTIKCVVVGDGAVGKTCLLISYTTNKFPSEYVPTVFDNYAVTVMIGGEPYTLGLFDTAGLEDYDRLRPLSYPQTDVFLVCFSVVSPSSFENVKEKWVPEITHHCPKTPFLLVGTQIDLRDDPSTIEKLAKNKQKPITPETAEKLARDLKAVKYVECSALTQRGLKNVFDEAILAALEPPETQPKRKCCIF
# Method: Two different HTRF counter-screens were used to identify false positive hits. The two interacting proteins GST-IQGAP1-C and His-Cdc42-Q61L were replaced with His-tagged GST or Cdc42-Q61L containing GST at the N-terminus and His at the C-terminus (GST-Cdc42-Q61L-His).
# First, GST-Cdc42-Q61L-His was titrated in parallel with the pre-mixed His-Cdc42-Q61L and GST-IQGAP1-C to comparatively match the signal level to the signal of the primary HTRF assay. We chose 100 nM GST-Cdc42-Q61L-His protein as the final concentration for the counter-screen. The assay protocol is outlined in Supplementary Table S2 online. Briefly, 4 μL/well of […] diluted in binding buffer was dispensed to the plates, followed by pinning 23 nL/well of selected hit compounds from the primary screening and addition of 2 μL/well premixed HTRF antibodies. After 3 h, 1 μL/well of 2.8 M potassium fluoride was added to the assay and the fluorescence signal was read on the Envision instrument. For controls, we used pre-mixed proteins GST-IQGAP1-C and His-Cdc42-Q61L (primary assay’s regular conditions) as IC100, and […] at 1.5 nM final concentration as IC0.
# Supplementary Table S2: Counter-screening HTRF protocol.
# Step Parameter Value Description
# 1a Protein 4 µL 100 nM His-GST (final concentration), diluted in
# 1b Controls 4 µL Column 2: GST-IQGAP1-C protein only [1.5nM] final
# Column 3: pre-mixed proteins (regular assay
# 2 Compounds 23 nL Selected compounds were pin-transferred from DMSO
# HTRF α-His-XL (5 ng/µL, 3X working concentration) +
# 3 antibodies 2 µL α-GST-K (0.7 ng/µL 3X working concentration),
# pre-mix mixed in binding buffer
# 4 Time 3 Incubation (ambient temperature)
# 5 Reagent 1 µL 2.8 M KF (7x)
# 6 Detector HTRF Envision plate reader (excitation: 340 nm, emission: […]
# [3] = target: T2, His-Cdc42 (Homo sapiens, UniProt P60953, Q61L); test: Microscale thermophoresis (MST); format: binding; conditions: for effect on thermophoretic motion of Cdc42 / Kd: MST; for effect on thermophoretic motion of Cdc42: 500 µM to 244 nM; for Kd: 100 nM labeled His-Cdc42, n = 3
# T2 construct: made in house; host or cells: E. coli
# T2 sequence (P60953 1-184 isoform P60953-1 Q61L): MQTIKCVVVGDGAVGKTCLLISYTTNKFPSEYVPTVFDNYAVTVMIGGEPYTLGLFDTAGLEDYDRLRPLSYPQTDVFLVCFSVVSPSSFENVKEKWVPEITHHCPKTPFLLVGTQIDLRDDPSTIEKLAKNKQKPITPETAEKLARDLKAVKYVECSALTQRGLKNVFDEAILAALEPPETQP
# Method: Two-fold serial dilutions of compounds were first prepared in DMSO, then further diluted in PBS containing 0.05% Tween-20. […] Samples were loaded into Monolith™ standard capillaries and measured using Monolith NT.115 (Nanotemper Technologies) with 50% excitation power and 50% MST power, with laser on and off times of 30 s and 5 s, respectively. The Kd values were calculated by evaluating the thermophoresis and T-Jump signals using MO.Affinity Analysis software (Nanotemper Technologies). All experiments were conducted in three biological replicates.
# [4] = pION µSOL kinetic aqueous solubility; format: physicochemical; conditions: pION µSOL assay, pH 7.4; for solubility kinetic: aqueous medium
# [5] = Parallel artificial membrane permeation assay (PAMPA); format: in vitro ADME; conditions: for Papp: PAMPA, read-out: PAMPA passive permeability
# [6] = Metabolic half-life in rat liver microsome lysates; format: in vitro ADME; conditions: minimum detectable half-life of 1 min; for half-life: read-out: T1/2 metabolic half-life
# [7] = system: endogenous IQGAP1/Cdc42 interaction; test: Immunoprecipitation of endogenous IQGAP1 and co-precipitated Cdc42 in HEK293 cell lysates; format: binding; conditions: 0.2-50 µM
# Method: Each compound was added to lysates from HEK293 cells at a final concentration of 50 µM and endogenous IQGAP1 was immunoprecipitated. DMSO alone was used as the negative control (100% binding).
# HEK293 cells were plated in 10-cm dishes to reach 80% confluence. The following day, the cells were washed with ice-cold phosphate-buffered saline (PBS) and lysed with 500 µl of Buffer A (50 mM Tris–HCl, pH 7.4, 150 mM NaCl, and 1% Triton X-100) supplemented with complete protease and phosphatase inhibitors (Roche, Mannheim, Germany). Lysates were subjected to two rounds of sonication for 10 s each, and insoluble material was precipitated by centrifugation at 13,000 xg for 10 min at 4 °C. Supernatants were precleared with protein A-Sepharose beads for 1 h. DMSO (vehicle) or different concentrations of the compounds (0.2, 0.6, 1, 5, 16 or 50 µM) were added to equal amounts of protein lysates for 30 min. Protein A-Sepharose beads and anti-IQGAP1 polyclonal antibodies were then added for 2 h at 4 °C. Anti-rabbit IgG antibodies were used as the immunoprecipitation control. Samples were washed five times with Buffer A, resolved by SDS-PAGE and transferred to polyvinylidene fluoride (PVDF) membranes (Millipore Corp). Membranes were probed with anti-IQGAP1 and anti-Cdc42 antibodies. After secondary antibody detection, Western blots were imaged using a LI-COR Odyssey infrared imaging system (LI-COR, USA). Western blot quantification and analysis was conducted using Image Studio™ Lite (LI-COR Biosciences).
EC50 [1] [µM],"concentration above which precipitates formed ([3]; MST samples, PBS containing 0.05% Tween-20)",Solubility (kinetic aqueous) [4] [µg/mL],PAMPA passive permeability [5] [×10⁻⁶ cm/s],T1/2 metabolic half-life [6] [min],EC50 ([2]; read-out: EC50 in double-tagged Cdc42 counter-screen) [µM],Kd ([3]; read-out: dissociation constant (Kd) for Cdc42) [µM],solubility kinetic [4] [µg/mL],Papp [5] [×10⁻⁶ cm/s],half-life [6] [min],EC50 ([1]; Homo sapiens) [µM],EC50 [2] [µM],Kd [3] [µM],Structure (SMILES),effect on cell shape ([1]; 50 µM (Fig. S3)),cell migration maximum efficiency [1] [%],activity in double-tagged Cdc42 counter-screen [2],effect on thermophoretic motion of Cdc42 [3],effect on Cdc42 binding to IQGAP1 in immunoprecipitation [7],"inhibition at 50 µM ([1]; Homo sapiens, 50 μM, the highest concentration used, read-out: inhibition of cell migration) [%]"
2.7,above 62.5 µM,< 1,675,11.47,–,–,–,–,–,–,–,–,CCN(CC)CCn1c2ccccc2c2nc3ccc([N+](=O)[O-])cc3cc21 [MLS000332963],flatter and spread out more on the plastic,39,inactive,did not affect the thermophoretic motion of Cdc42,reduced the binding substantially,–
–,–,–,–,–,–,–,–,–,–,–,–,–,Cc1cccc(NC(=O)c2c(NC(=O)C(F)(F)F)sc3c2CCCCC3)c1 [NCGC00098561],–,–,not active,did not affect the thermophoretic motion of Cdc42,reduced the binding substantially,–
–,–,–,–,–,4.47,28.1,37.1,77,2.7,–,–,–,CCN1CCN(c2ncc3c(n2)CCN(Cc2cc(Br)cs2)C3)CC1 [NCGC00131308],–,–,–,–,reduced the binding substantially,57.7 ± 7.2
–,–,–,–,–,–,–,< 1,177,7.12,12.9,6.31,96.2,CCc1ccccc1Nc1ncnc2c1cnn2-c1ccc(Cl)cc1 [NCGC00138812],–,20,–,–,reduced the binding substantially,–
